Experimental data: ChEMBL document CHEMBL1141107, “A novel series of non-carboxylic acid, non-hydantoin inhibitors of aldose reductase with potent oral activity in diabetic rat models: 6-(5-chloro-3-methylbenzofuran-2-sulfonyl)-2H-pyridazin-3-one and congeners” (J Med Chem, 2005)

Columns and labels:
[1] = system: Rattus norvegicus; experiment: Inhibition of sorbitol accumulation in diabetic rat by acute test dosed at 10 mg/kg; assay type: functional
[2] = system: Rattus norvegicus; experiment: Inhibition of fructose accumulation in diabetic rat after oral gavage administration incubated at RT for 60 minutes in pH 4.5 by acute test dosed at 10 mg/kg; assay type: functional; conditions: 1 h
[3] = system: Rattus norvegicus; experiment: Inhibition of sorbitol accumulation in diabetic rat by acute test dosed at 20 mg/kg; assay type: functional
[4] = system: Rattus norvegicus; experiment: Inhibition of fructose accumulation in diabetic rat after oral gavage administration incubated at RT for 60 minutes in pH 4.5 by acute test dosed at 20 mg/kg; assay type: functional; conditions: 1 h
[5] = system: Rattus norvegicus; experiment: Inhibition of sorbitol accumulation in diabetic rat by acute test dosed at 5 mg/kg; assay type: functional
[6] = system: Rattus norvegicus; experiment: Inhibition of sorbitol accumulation in diabetic rat by chronic test dosed at 5 mg/kg; assay type: functional
[7] = biological target: Aldo-keto reductase family 1 member B1 (Homo sapiens, UniProt P15121); experiment: In vitro inhibitroy concentration against Aldose reductase incubated at 24 degree C for 15 minutes in pH 7.0
[8] = system: Rattus norvegicus; experiment: Inhibition of sorbitol accumulation in diabetic rat by chronic test dosed at 20 mg/kg; assay type: functional
[9] = system: Rattus norvegicus; experiment: Inhibition of fructose accumulation in diabetic rat after oral gavage administration, pH 4.5 by chronic test dosed at 20 mg/kg; assay type: functional
[10] = system: Rattus norvegicus; experiment: Inhibition of sorbitol accumulation in diabetic rat by acute test dosed at 3 mg/kg; assay type: functional
[11] = system: Rattus norvegicus; experiment: Inhibition of fructose accumulation in diabetic rat after oral gavage administration incubated at RT for 60 minutes in pH 4.5 by acute test dosed at 3 mg/kg; assay type: functional; conditions: 1 h
[12] = system: Rattus norvegicus; experiment: Inhibition of fructose accumulation in diabetic rat after oral gavage administration, pH 4.5 by chronic test dosed at 10 mg/kg; assay type: functional
[13] = system: Rattus norvegicus; experiment: Inhibition of sorbitol accumulation in diabetic rat by chronic test dosed at 10 mg/kg; assay type: functional
[14] = system: Rattus norvegicus; experiment: Dose required for fructose accumulation in diabetic rat after oral gavage administration incubated at RT for 60 minutes in pH 4.5 by acute test; assay type: functional
[15] = species: Rattus norvegicus; experiment: Dose required for inhibition of sorbitol accumulation in diabetic rat by acute test; assay type: functional
[16] = system: Rattus norvegicus; experiment: Inhibition of sorbitol accumulation in diabetic rat by acute test dosed at 50 mg/kg; assay type: functional
[17] = system: Rattus norvegicus; experiment: Inhibition of fructose accumulation in diabetic rat after oral gavage administration, pH 4.5 by chronic test; assay type: functional

SMILES	inhibition in vivo at 10 mg/kg [1] [%]	inhibition in vivo at 10 mg/kg [2] [%]	inhibition in vivo at 20 mg/kg [3] [%]	inhibition in vivo at 20 mg/kg [4] [%]	IC50 [7] [nM]	other results
O=S(=O)(c1ccc(Cl)c(Cl)c1)c1ccc(O)nn1	84	60	98	85		
O=c1ccc(S(=O)(=O)c2cccc(Cl)c2Cl)n[nH]1	77		98		55	inhibition in vivo at 5 mg/kg [5]: 55%; inhibition in vivo at 5 mg/kg [6]: 81%; inhibition in vivo at 20 mg/kg [8]: 89%
O=c1ccc(S(=O)(=O)c2cc3cc(Cl)cc(Cl)c3[nH]2)n[nH]1					200	
O=c1ccc(S(=O)(=O)c2cc3ccccc3[nH]2)n[nH]1	75	58	100	82	590	inhibition in vivo at 20 mg/kg [9]: 50%; inhibition in vivo at 20 mg/kg [8]: 67%
O=S(=O)(Cc1ccccc1Cl)c1ccc(O)nn1					118	
Cc1c(S(=O)(=O)c2ccc(O)nn2)sc2ccc(Cl)cc12	83	51			55	inhibition in vivo at 3 mg/kg [10]: 49%; inhibition in vivo at 3 mg/kg [11]: 29%
CCc1c(S(=O)(=O)c2ccc(O)nn2)oc2ccc(Cl)cc12					6	inhibition in vivo at 10 mg/kg [12]: 24%; inhibition in vivo at 10 mg/kg [13]: 48%
O=c1ccc(S(=O)(=O)c2ccccc2F)n[nH]1	79	34	91	56	540	
O=S(=O)(Cc1cccc(Cl)c1F)c1ccc(O)nn1			74	64	54	
O=c1ccc(S(=O)(=O)Cc2cccc(C(F)(F)F)c2F)n[nH]1			61	56	44	
O=S(=O)(c1ccc(O)nn1)c1ccc(Cl)cc1Cl						ED50 [14]: 3 mg/kg; ED50 [15]: 0.8 mg/kg
O=c1ccc(S(=O)(=O)c2ccc(F)cc2F)n[nH]1					870	
O=c1ccc(S(=O)(=O)c2ccc(F)cc2)n[nH]1					474	inhibition in vivo at 50 mg/kg [16]: 81%
Cc1c(S(=O)(=O)c2ccc(O)nn2)oc2cc(Cl)ccc12	40	28			190	
O=c1ccc(S(=O)(=O)c2oc3ccc(Cl)cc3c2-c2ccccc2)n[nH]1			27	20	34	
Cc1ccc2sc(S(=O)(=O)c3ccc(O)nn3)cc2c1				7	160	
O=S(=O)(Cc1cccc(C(F)(F)F)c1)c1ccc(O)nn1			88	70	72	inhibition in vivo at 20 mg/kg [9]: 42%; inhibition in vivo at 20 mg/kg [8]: 65%
O=c1ccc(S(=O)(=O)c2cccc3ccccc23)n[nH]1	88	49	95	55	150	inhibition in vivo at 10 mg/kg [12]: 31%; inhibition in vivo at 20 mg/kg [9]: 43%; inhibition in vivo at 20 mg/kg [8]: 70%; inhibition in vivo at 10 mg/kg [13]: 60%
O=S(=O)(Cc1ccccc1F)c1ccc(O)nn1					422	
O=S(=O)(Cc1ccccc1C(F)(F)F)c1ccc(O)nn1					500	
O=c1ccc(S(=O)(=O)c2cc3ccccc3o2)n[nH]1		34				
O=S(=O)(c1ccc2ccccc2c1)c1ccc(O)nn1					360	Inhibition [17]: 51%; inhibition in vivo at 20 mg/kg [8]: 74%
O=c1ccc(S(=O)(=O)c2cc3cc4c(cc3[nH]2)OCO4)n[nH]1					3800	
O=S(=O)(c1ccc(O)nn1)c1oc2ccccc2c1-c1ccc(F)cc1	66	50			49	
O=c1ccc(S(=O)(=O)c2cc3ccccc3s2)n[nH]1			46	22	180	

SMILES	inhibition in vivo at 10 mg/kg [1] [%]	inhibition in vivo at 10 mg/kg [2] [%]	inhibition in vivo at 20 mg/kg [3] [%]	inhibition in vivo at 20 mg/kg [4] [%]	IC50 [7] [nM]	other results
Cc1c(S(=O)(=O)c2ccc(O)nn2)oc2ccccc12		43		56	140	
O=c1ccc(S(=O)(=O)c2cccc(C(F)(F)F)c2)n[nH]1			45	17	175	
Cc1ccc2oc(S(=O)(=O)c3ccc(O)nn3)c(C)c2c1	21	18			13	
O=c1ccc(S(=O)(=O)c2ccc(C(F)(F)F)cc2)n[nH]1	44	10	67	24	360	
O=S(=O)(c1ccc(O)nn1)c1ccc(F)cc1Cl	95	87	106	97		
COc1ccc2oc(S(=O)(=O)c3ccc(=O)[nH]n3)cc2c1			49	34	230	
O=c1ccc(S(=O)(=O)c2cc3ccc(F)cc3[nH]2)n[nH]1					1400	
O=c1ccc(S(=O)(=O)c2cc3cc(Cl)ccc3o2)n[nH]1		39				
O=c1ccc(S(=O)(=O)c2ccc(Cl)cc2)n[nH]1	65	52			380	
O=c1ccc(S(=O)(=O)Cc2cccc(Cl)c2Cl)n[nH]1			65	48	35	
O=c1ccc(S(=O)(=O)c2ccc(Br)cc2)n[nH]1					350	inhibition in vivo at 50 mg/kg [16]: 26%
O=c1ccc(S(=O)(=O)c2cc3cc(Cl)cc(Cl)c3o2)n[nH]1	32	39			87	
O=c1ccc(S(=O)(=O)Cc2c(F)cccc2Cl)n[nH]1			42	45	26	
O=c1ccc(S(=O)(=O)c2cc3ccc(Cl)cc3[nH]2)n[nH]1					645	
O=S(=O)(c1ccc(O)nn1)c1ccccc1Cl	96	68	101	81		
O=S(=O)(c1cccc(Cl)c1)c1ccc(O)nn1					240	
O=c1ccc(S(=O)(=O)Cc2c(Cl)cccc2Cl)n[nH]1	42	24			52	
O=c1ccc(S(=O)(=O)Cc2ccc(Br)cc2F)n[nH]1					667	
O=c1ccc(S(=O)(=O)c2oc3ccccc3c2-c2ccccc2)n[nH]1					23	
O=c1ccc(S(=O)(=O)c2cc3cc(Cl)ccc3[nH]2)n[nH]1					1100	
O=S(=O)(Cc1cccc(F)c1F)c1ccc(O)nn1			82	51	257	
O=c1ccc(S(=O)(=O)c2cc3cccc(Cl)c3[nH]2)n[nH]1			40	44	450	
O=S(=O)(c1ccc(O)nn1)c1ccccc1Br						inhibition in vivo at 50 mg/kg [16]: 55%
O=S(=O)(c1ccc(O)nn1)c1ccc(Br)cc1F	81	67				
